Measurements taken from ChEMBL document CHEMBL3046640, “Synthesis and antimicrobial activity of bischalcone derivatives” (2013).
In brackets after ≈: the same amount, converted by molar mass. Activity calls are given as the source filed them. The calls are words filed in the database; no cut-off is given here.

Key:
Format in all cases: functional
Escherichia coli [1] = assay: Antibacterial activity against Escherichia coli ATCC 25922 assessed as growth inhibition after 24 hr by broth dilution method
Pseudomonas aeruginosa [2] = assay: Antibacterial activity against Pseudomonas aeruginosa ATCC 27853 assessed as growth inhibition at 100 ug/mL after 24 hr by cup-plate method; conditions: ATCC 27853, 24 h, read-out: DIZ
Staphylococcus aureus [3] = assay: Antibacterial activity against Staphylococcus aureus ATCC 25923 assessed as growth inhibition at 100 ug/mL after 24 hr by cup-plate method; conditions: ATCC 25923, 24 h, read-out: DIZ
Rhizopus arrhizus [4] = assay: Antifungal activity against Rhizopus oryzae MTCC 262 assessed as growth inhibition at 100 ug/mL after 3 to 4 days by agar diffusion method; conditions: read-out: DIZ
Candida albicans [5] = assay: Antifungal activity against Candida albicans ATCC 10231 assessed as growth inhibition at 100 ug/mL after 3 to 4 days by agar diffusion method; conditions: read-out: DIZ
Staphylococcus aureus [6] = assay: Antibacterial activity against Staphylococcus aureus ATCC 25923 assessed as growth inhibition after 24 hr by broth dilution method
Aspergillus niger [7] = assay: Antifungal activity against Aspergillus niger ATCC 16404 assessed as growth inhibition after 48 hr by broth dilution method
Rhizopus arrhizus [8] = assay: Antifungal activity against Rhizopus oryzae MTCC 262 assessed as growth inhibition after 48 hr by broth dilution method
Candida albicans [9] = assay: Antifungal activity against Candida albicans ATCC 10231 assessed as growth inhibition after 48 hr by broth dilution method
Aspergillus niger [10] = assay: Antifungal activity against Aspergillus niger ATCC 16404 assessed as growth inhibition at 100 ug/mL after 3 to 4 days by agar diffusion method; conditions: read-out: DIZ
Pseudomonas aeruginosa [11] = assay: Antibacterial activity against Pseudomonas aeruginosa ATCC 27853 assessed as growth inhibition after 24 hr by broth dilution method
Escherichia coli [12] = assay: Antibacterial activity against Escherichia coli ATCC 25922 assessed as growth inhibition at 100 ug/mL after 24 hr by cup-plate method; conditions: ATCC 25922, 24 h, read-out: DIZ

Row | MIC (Escherichia coli [1]; ATCC 25922, 24 h) [µg/mL] | MIC (Staphylococcus aureus [6]; ATCC 25923, 24 h) [µg/mL] | MIC (Aspergillus niger [7]) | MIC (Rhizopus arrhizus [8]) | MIC (Candida albicans [9]) | MIC (Pseudomonas aeruginosa [11]) | MIC (Aspergillus niger [7]; ATCC 16404, 48 h) [µg/mL] | MIC (Rhizopus arrhizus [8]; MTCC 262, 48 h) [µg/mL] | MIC (Candida albicans [9]; ATCC 10231, 48 h) [µg/mL] | MIC (Pseudomonas aeruginosa [11]; ATCC 27853, 24 h) [µg/mL] | MIC (Escherichia coli [1]) | MIC (Staphylococcus aureus [6]) | Compound | zone of inhibition at 100 µg/mL (Pseudomonas aeruginosa [2]) [mm] | zone of inhibition at 100 µg/mL (Staphylococcus aureus [3]) [mm] | zone of inhibition at 100 µg/mL (Rhizopus arrhizus [4]) [mm] | zone of inhibition at 100 µg/mL (Candida albicans [5]) [mm] | zone of inhibition at 100 µg/mL (Aspergillus niger [10]) [mm] | zone of inhibition at 100 µg/mL (Escherichia coli [12]) [mm]
1 | 50 (≈ 91.5 µM) | > 100 | – | – | – | – | 50 (≈ 91.5 µM) | 50 (≈ 91.5 µM) | 50 (≈ 91.5 µM) | > 100 | – | – | COc1cc(-c2cc(=O)c3cc4c(=O)cc(-c5cc(OC)c(OC)c(OC)c5)oc4cc3o2)cc(OC)c1OC | 5 | 5 | 10 | 10 | 10 | 10
2 | – | > 100 | inactive | inactive | inactive | inactive | – | – | – | – | inactive | – | CC(=O)c1cc(C(C)=O)c(OC(=O)c2cccc(Cl)c2)cc1OC(=O)c1cccc(Cl)c1 | < 5 | 5 | < 5 | < 5 | < 5 | < 5
3 | 50 (≈ 115 µM) | 25 (≈ 57.4 µM) | – | – | – | – | 25 (≈ 57.4 µM) | 50 (≈ 115 µM) | 50 (≈ 115 µM) | 25 (≈ 57.4 µM) | – | – | O=c1cc(-c2cccc(Cl)c2)oc2cc3oc(-c4cccc(Cl)c4)cc(=O)c3cc12 | 15 | 15 | 10 | 10 | 15 | 10
4 | 50 (≈ 114 µM) | 50 (≈ 114 µM) | – | – | – | – | 50 (≈ 114 µM) | 50 (≈ 114 µM) | 50 (≈ 114 µM) | 25 (≈ 56.9 µM) | – | – | O=C(/C=C/c1ccc(Cl)cc1)c1cc(C(=O)/C=C/c2ccc(Cl)cc2)c(O)cc1O | 15 | 10 | 10 | 10 | 10 | 10
5 | 25 (≈ 57.4 µM) | 12.5 (≈ 28.7 µM) | – | – | – | – | 50 (≈ 115 µM) | 25 (≈ 57.4 µM) | 12.5 (≈ 28.7 µM) | 25 (≈ 57.4 µM) | – | – | O=c1cc(-c2ccc(Cl)cc2)oc2cc3oc(-c4ccc(Cl)cc4)cc(=O)c3cc12 | 15 | 15 | 15 | 15 | 10 | 15
6 | – | > 100 | inactive | inactive | – | inactive | – | – | > 100 | – | inactive | – | CC(=O)c1cc(C(C)=O)c(OC(=O)c2cccc([N+](=O)[O-])c2)cc1OC(=O)c1cccc([N+](=O)[O-])c1 | < 5 | 5 | < 5 | 5 | < 5 | < 5
7 | – | > 100 | – | – | – | – | > 100 | 50 (≈ 114 µM) | 50 (≈ 114 µM) | 50 (≈ 114 µM) | inactive | – | O=C(/C=C/c1cccc(Cl)c1)c1cc(C(=O)/C=C/c2cccc(Cl)c2)c(O)cc1O | 10 | 5 | 10 | 10 | 5 | < 5

Second part, the compound before the results:

Row | Compound | MIC (Escherichia coli [1]; ATCC 25922, 24 h) [µg/mL] | MIC (Staphylococcus aureus [6]; ATCC 25923, 24 h) [µg/mL] | MIC (Aspergillus niger [7]) | MIC (Rhizopus arrhizus [8]) | MIC (Candida albicans [9]) | MIC (Pseudomonas aeruginosa [11]) | MIC (Aspergillus niger [7]; ATCC 16404, 48 h) [µg/mL] | MIC (Rhizopus arrhizus [8]; MTCC 262, 48 h) [µg/mL] | MIC (Candida albicans [9]; ATCC 10231, 48 h) [µg/mL] | MIC (Pseudomonas aeruginosa [11]; ATCC 27853, 24 h) [µg/mL] | MIC (Escherichia coli [1]) | MIC (Staphylococcus aureus [6]) | zone of inhibition at 100 µg/mL (Pseudomonas aeruginosa [2]) [mm] | zone of inhibition at 100 µg/mL (Staphylococcus aureus [3]) [mm] | zone of inhibition at 100 µg/mL (Rhizopus arrhizus [4]) [mm] | zone of inhibition at 100 µg/mL (Candida albicans [5]) [mm] | zone of inhibition at 100 µg/mL (Aspergillus niger [10]) [mm] | zone of inhibition at 100 µg/mL (Escherichia coli [12]) [mm]
8 | CC(=O)c1cc(C(C)=O)c(OC(=O)c2ccccc2[N+](=O)[O-])cc1OC(=O)c1ccccc1[N+](=O)[O-] | > 100 | 50 (≈ 102 µM) | inactive | inactive | inactive | inactive | – | – | – | – | – | – | < 5 | 10 | < 5 | < 5 | < 5 | 5
9 | COc1ccc(/C=C/C(=O)c2cc(C(=O)/C=C/c3ccc(OC)c(OC)c3)c(OC)cc2OC)cc1OC | 50 (≈ 96.4 µM) | > 100 | – | inactive | – | inactive | > 100 | – | > 100 | – | – | – | < 5 | 5 | < 5 | 5 | 5 | 10
10 | COc1cccc(/C=C/C(=O)c2cc(C(=O)/C=C/c3cccc(OC)c3)c(O)cc2O)c1 | 50 (≈ 116 µM) | 50 (≈ 116 µM) | – | – | – | – | 50 (≈ 116 µM) | 25 (≈ 58.1 µM) | 25 (≈ 58.1 µM) | 50 (≈ 116 µM) | – | – | 10 | 10 | 15 | 15 | 10 | 10
11 | CC(=O)c1cc(C(C)=O)c(OC(=O)c2ccc(Cl)cc2)cc1OC(=O)c1ccc(Cl)cc1 | > 100 | > 100 | inactive | – | – | inactive | – | > 100 | > 100 | – | – | – | < 5 | 5 | 5 | 5 | < 5 | 5
12 | COc1ccccc1C(=O)Oc1cc(OC(=O)c2ccccc2OC)c(C(C)=O)cc1C(C)=O | – | – | – | inactive | inactive | – | > 100 | – | – | > 100 | inactive | inactive | 5 | < 5 | < 5 | < 5 | 5 | < 5
13 | COC1=CC(=O)C[C@@H](C)[C@]12Oc1c(Cl)c(OC)cc(OC)c1C2=O [GRISEOFULVIN] | – | – | – | – | – | – | 6.25 (≈ 17.7 µM) | 6.25 (≈ 17.7 µM) | 6.25 (≈ 17.7 µM) | – | – | – | – | – | > 20 | > 20 | > 20 | –
14 | O=c1c(O)c(-c2ccc(O)c(O)c2)oc2cc(O)cc(O)c12 [QUERCETIN] | > 100 | > 100 | – | – | – | – | – | – | > 100 | – | – | – | – | – | – | – | – | –
15 | O=C(/C=C/c1ccco1)c1cc(C(=O)/C=C/c2ccco2)c(O)cc1O | 12.5 (≈ 35.7 µM) | 25 (≈ 71.4 µM) | – | – | – | – | 25 (≈ 71.4 µM) | 50 (≈ 143 µM) | 12.5 (≈ 35.7 µM) | 12.5 (≈ 35.7 µM) | – | – | 15 | 15 | 10 | 15 | 15 | 15
16 | COc1cccc(/C=C/C(=O)c2cc(C(=O)/C=C/c3cccc(OC)c3)c(OC)cc2OC)c1 | > 100 | – | inactive | inactive | – | inactive | – | – | > 100 | – | – | inactive | < 5 | < 5 | < 5 | 5 | < 5 | 5
17 | O=C(O)c1cn(C2CC2)c2cc(N3CCNCC3)c(F)cc2c1=O [CIPROFLOXACIN] | – | – | – | – | – | – | – | – | – | – | – | – | > 20 | > 20 | – | – | – | > 20
18 | CN(C)c1ccc(/C=C/C(=O)c2cc(C(=O)/C=C/c3ccc(N(C)C)cc3)c(O)cc2O)cc1 | 25 (≈ 54.8 µM) | 50 (≈ 110 µM) | – | – | – | – | > 100 | 50 (≈ 110 µM) | 50 (≈ 110 µM) | 50 (≈ 110 µM) | – | – | 10 | 10 | 10 | 10 | 5 | 15
19 | CCN(CC)c1ccc(/C=C/C(=O)c2cc(C(=O)/C=C/c3ccc(N(CC)CC)cc3)c(OC)cc2OC)cc1 | – | – | – | inactive | inactive | – | > 100 | – | – | > 100 | inactive | inactive | 5 | < 5 | < 5 | < 5 | 5 | < 5
20 | COc1cc(OC)c(C(=O)/C=C/c2cc(OC)c(OC)c(OC)c2)cc1C(=O)/C=C/c1cc(OC)c(OC)c(OC)c1 | 50 (≈ 86.4 µM) | > 100 | inactive | inactive | – | – | – | – | > 100 | > 100 | – | – | 5 | 5 | < 5 | 5 | < 5 | 10
21 | Cc1ccccc1/C=C/C(=O)c1cc(C(=O)/C=C/c2ccccc2C)c(O)cc1O | – | > 100 | inactive | inactive | – | – | – | – | > 100 | > 100 | inactive | – | 5 | 5 | < 5 | 5 | < 5 | < 5
